This note sets out measurements from ChEMBL document CHEMBL3860041, “Synthesis, biological evaluation and molecular modeling study of some new methoxylated 2-benzylthio-quinazoline-4(3H)-ones as nonclassical antifolates” (Bioorg Med Chem Lett, 2016).

Converted amounts (≈) assume the structure as drawn.

One assay has as its target T1, Dihydrofolate reductase (Bos taurus, UniProt P00376).
T1 sequence (P00376 whole entry): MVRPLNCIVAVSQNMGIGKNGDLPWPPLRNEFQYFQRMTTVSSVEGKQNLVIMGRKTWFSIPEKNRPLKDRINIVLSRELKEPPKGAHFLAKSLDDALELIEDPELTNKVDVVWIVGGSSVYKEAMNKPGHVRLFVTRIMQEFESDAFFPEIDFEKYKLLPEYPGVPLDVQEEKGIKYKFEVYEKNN
The assay is described as follows: Inhibition of bovine liver DHFR preincubated for 2 mins followed by addition of FH2 as substrate and NADPH.

Assay [1] has as its system Staphylococcus aureus. The assay is described as follows: Antimicrobial activity against Staphylococcus aureus IFO 3060 at 200 ug/disc measured after 24 hrs by agar disc-diffusion method. It counts as functional. As to conditions: IFO 3060, 24 h, read-out: DIZ. On the technique in general: In agar diffusion tests the substance spreads into inoculated agar from a disc or well.

The subject of assay [2] is Bacillus subtilis. Description: Antimicrobial activity against Bacillus subtilis IFO 3007 at 200 ug/disc measured after 24 hrs by agar disc-diffusion method. The assay is classed as functional. The conditions noted are these: IFO 3007, 24 h, read-out: DIZ.
For assay [3], the system named is Escherichia coli. Description: Antimicrobial activity against Escherichia coli IFO 3301 at 200 ug/disc measured after 24 hrs by agar disc-diffusion method. The conditions noted are these: IFO 3301, 24 h, read-out: DIZ. It counts as functional.
The subject of assay [4] is Pseudomonas aeruginosa. The assay is described as follows: Antimicrobial activity against Pseudomonas aeruginosa IFO 3448 at 200 ug/disc measured after 24 hrs by agar disc-diffusion method. The assay is classed as functional. The conditions noted are these: IFO 3448, 24 h, read-out: DIZ.
The test system of the next assay is Candida albicans. Description: Antimicrobial activity against Candida albicans IFO 0583 at 200 ug/disc measured after 48 hrs by agar disc-diffusion method. The assay is classed as functional. As to conditions: IFO 0583, 48 h, read-out: DIZ.
Assay [5] concerns Staphylococcus aureus. The assay is described as follows: Antimicrobial activity against Staphylococcus aureus IFO 3060 measured after 24 hrs by microdilution method. The assay is classed as functional.
Assay [6] has as its system Bacillus subtilis. The assay is described as follows: Antimicrobial activity against Bacillus subtilis IFO 3007 measured after 24 hrs by microdilution method. The assay is classed as functional. (Dilution methods test growth across graded concentrations, often in twofold steps.)
Assay [7] concerns Escherichia coli. The assay is described as follows: microbe, parasite or virus in culture. As to conditions: IFO 3301, 24 h.
Description: Antimicrobial activity against Escherichia coli IFO 3301 measured after 24 hrs by microdilution method
For assay [8], the system named is Pseudomonas aeruginosa. Description: Antimicrobial activity against Pseudomonas aeruginosa IFO 3448 measured after 24 hrs by microdilution method. The assay is classed as functional.

For the compound `COc1cc(CSc2nc3ccc(C)cc3c(=O)n2-c2ccc(Cl)cc2)cc(OC)c1OC`, at Dihydrofolate reductase, inhibition was half-maximal at 900 nM (IC50).
At Dihydrofolate reductase, `COc1ccc(CSc2nc3cc(OC)c(OC)cc3c(=O)n2-c2ccccc2)cc1` displayed an IC50 of 4000 nM. The zone of inhibition at 200 µg/disc with Staphylococcus aureus [1] came out at 24 mm; in the assay on Bacillus subtilis [2], 26 mm; with Escherichia coli [3] it was 14 mm; in the assay with Pseudomonas aeruginosa [4] it was 8 mm; with Candida albicans it was 12 mm. Further, the MIC against Staphylococcus aureus [5] (IFO 3060, 24 h) turned out to be 2 µg/mL (≈ 4.6 µM); in the assay on Bacillus subtilis [6] (IFO 3007, 24 h), 2 µg/mL (≈ 4.6 µM); in the assay on Escherichia coli [7], 8 µg/mL (≈ 18.4 µM).
On to `O=C(O)c1cn(C2CC2)c2cc(N3CCNCC3)c(F)cc2c1=O` [CIPROFLOXACIN], for which the zone of inhibition at 200 µg/disc in the assay with Staphylococcus aureus [1] stood at 32 mm; in the assay with Bacillus subtilis [2], 35 mm; in the assay on Escherichia coli [3], 38 mm; with Pseudomonas aeruginosa [4] it was 36 mm. For the same compound, the MIC in the assay with Staphylococcus aureus [5] (IFO 3060, 24 h) came out at 0.5 µg/mL (≈ 1.51 µM); in the assay with Bacillus subtilis [6] (IFO 3007, 24 h) it was 0.5 µg/mL (≈ 1.51 µM); against Pseudomonas aeruginosa [8] (IFO 3448, 24 h), 1 µg/mL (≈ 3.02 µM).
With GENTAMICIN, the MIC amounted to 2 µg/mL against Staphylococcus aureus [5], 2 µg/mL against Bacillus subtilis [6] and 1 µg/mL against Pseudomonas aeruginosa [8].
`COc1ccc(CSc2nc3ccc(C)cc3c(=O)n2Cc2ccccc2)cc1` gave an IC50 against Dihydrofolate reductase of 10 nM. This lies in the double-digit nanomolar range.
At Dihydrofolate reductase, `COc1ccccc1-n1c(SCc2cc(OC)c(OC)c(OC)c2)nc2ccc(C)cc2c1=O` registered an IC50 of 1000 nM.
The compound `COc1ccc(CSc2nc3cc(OC)c(OC)cc3c(=O)n2-c2ccc(Cl)cc2)cc1` gave an IC50 on Dihydrofolate reductase of 6000 nM. Moreover, the zone of inhibition at 200 µg/disc stood at 20 mm in the assay on Staphylococcus aureus [1]; 18 mm with Bacillus subtilis [2]; 15 mm in the assay on Escherichia coli [3]; 8 mm in the assay on Pseudomonas aeruginosa [4]; 8 mm in the assay with Candida albicans. In addition, the MIC amounted to 4 µg/mL (≈ 8.53 µM) against Staphylococcus aureus [5] (IFO 3060, 24 h); 4 µg/mL (≈ 8.53 µM) in the assay on Bacillus subtilis [6] (IFO 3007, 24 h); 8 µg/mL (≈ 17.1 µM) in the assay with Escherichia coli [7].
With `COc1ccc(CSc2nc3ccc(Cl)cc3c(=O)n2-c2ccccc2)cc1`, half-maximal inhibition against Dihydrofolate reductase (IC50) was put at 20 nM. Moreover, the zone of inhibition at 200 µg/disc turned out to be 14 mm with Staphylococcus aureus [1]; 16 mm with Bacillus subtilis [2]; 8 mm with Escherichia coli [3]; 8 mm with Pseudomonas aeruginosa [4]; 8 mm with Candida albicans.
With `COc1ccc(CSc2nc3cc(OC)c(OC)cc3c(=O)n2-c2ccc(C)cc2)cc1`, the IC50 against Dihydrofolate reductase is 2000 nM.
The compound `COc1ccc(CSc2nc3ccc(C)cc3c(=O)n2-c2ccccc2)cc1` displayed a concentration for half-maximal inhibition (IC50) against Dihydrofolate reductase of 100 nM. In addition, the zone of inhibition at 200 µg/disc in the assay on Staphylococcus aureus [1] worked out at 18 mm; in the assay on Bacillus subtilis [2], 22 mm; with Escherichia coli [3] it was 16 mm; in the assay with Pseudomonas aeruginosa [4], 12 mm; in the assay with Candida albicans, 8 mm. The MIC with Staphylococcus aureus [5] (IFO 3060, 24 h) turned out to be 4 µg/mL (≈ 10.3 µM); against Bacillus subtilis [6] (IFO 3007, 24 h) it was 2 µg/mL (≈ 5.15 µM); in the assay on Escherichia coli [7], 8 µg/mL (≈ 20.6 µM).
Take `COc1ccc(-n2c(SCc3cc(OC)c(OC)c(OC)c3)nc3cc(OC)c(OC)cc3c2=O)cc1`: the IC50 against Dihydrofolate reductase turned out to be 1200 nM.
`COc1cc2nc(SCc3cc(OC)c(OC)c(OC)c3)n(-c3ccc(Cl)cc3)c(=O)c2cc1OC` displayed an IC50 at Dihydrofolate reductase of 900 nM. In addition, the zone of inhibition at 200 µg/disc in the assay with Staphylococcus aureus [1] turned out to be 22 mm; in the assay with Bacillus subtilis [2], 26 mm; in the assay with Escherichia coli [3] it was 18 mm; in the assay on Pseudomonas aeruginosa [4], 12 mm; in the assay on Candida albicans, 8 mm. Further, the MIC in the assay on Staphylococcus aureus [5] (IFO 3060, 24 h) amounted to 4 µg/mL (≈ 7.56 µM); against Bacillus subtilis [6] (IFO 3007, 24 h), 2 µg/mL (≈ 3.78 µM); in the assay on Escherichia coli [7], 8 µg/mL (≈ 15.1 µM).
On Dihydrofolate reductase, `COc1ccc(CSc2nc3cc(OC)c(OC)cc3c(=O)n2-c2ccccc2OC)cc1` yielded a half-inhibitory concentration (IC50) of 600 nM.
`COc1cc2nc(SCc3cc(OC)c(OC)c(OC)c3)n(-c3ccc(C)cc3)c(=O)c2cc1OC`: the IC50 at Dihydrofolate reductase is 1200 nM.
Still for that read-out and setting: the same measure for `COc1ccc(CSc2nc3ccc(C)cc3c(=O)n2-c2ccc(OC)cc2)cc1`: 1200 nM.
On the same count and under the same terms, the same measure for `COc1cc(CSc2nc3ccc(Cl)cc3c(=O)n2-c2ccc(Cl)cc2)cc(OC)c1OC`: 2000 nM.
Regarding `Clc1ccccc1C(c1ccccc1)(c1ccccc1)n1ccnc1` [CLOTRIMAZOLE], in the assay with Candida albicans, the zone of inhibition at 200 µg/disc came to 21 mm.
The compound `COc1ccc(CSc2nc3ccc(Cl)cc3c(=O)n2-c2ccccc2OC)cc1` returned an IC50 against Dihydrofolate reductase of 800 nM.

By IC50 is commonly meant the concentration that gives 50% inhibition.
